Measured values reported in US20240226211A9, “SEAWEED EXTRACTS, ISOLATED COMPOUNDS, AND METHODS OF TREATMENT” (University of Florida Research Foundation, Incorporated, priority 2017, published 2024).

Tests used:
[1] = system: ARE-luciferase reporter (human NQO1-ARE) in IMR-32 cells; test: ARE-luc reporter assay in IMR-32 cells; type: cell-based; conditions: relative to Compounds 1 and 2; assay not specified
Excerpt: The ARE-luciferase reporter construct (ARE-luc) contains the core sequence of human NQO1-ARE1. The mock plasmid (pcDNA3-mRFP) was purchased from Addgene (plasmid 13032). The following plasmids were reported by Zhang et a/.2003 [Zhang, D. D., and Hannink, M. (2003) Distinct cysteine residues in Keap1 are required for Keap1-dependent ubiquitination of Nrf2 and for stabilization of Nrf2 by chemopreventive agents and oxidative stress. Mol. Cell. Biol. 23, 8137-8151]. The Keap1-CBD plasmid carries the entire open reading frame (ORF) of human Keap1 fused to the chitin binding domain (CBD) of the Bacillus circulans chitinase A1 gene upstream of the Keap1 stop codon. Oligonucleotide-directed mutagenesis was used to generate the Keap1-C151S-CBD and Keap1-C288S-CBD plasmids. The HA-Cul3 plasmid was constructed by fusing an N-terminal hemagglutinin (HA) tag with a cDNA sequence coding for amino acids 1-380 of human Cul3 gene. The Gal4-Neh2 expression vector contains the codons for the first 97 amino acids (Neh2 domain) of human Nrf2 fused to the ORF of the Gal4 DNA-binding domain
An ARE-luciferase reporter plasmid and CMV-GFP plasmid (to monitor transfection efficiency) were co-transfected into a human androgen-sensitive prostate cancer cell line, LNCaP (6×10^4 cells/well), and a human neuroblastoma cell line, IMR-32 (3×10^4 cells/well), using Fugene® HD (Roche Diagnostics) in 96-well format. […] J Biol Chem. 2002; 277:388-394; Lee J M, Hanson J M, Chu W A, Johnson J A. Phosphatidylinositol 3-kinase, not extracellular signal-regulated kinase, regulates activation of the antioxidant-responsive element in IMR-32 human neuroblastoma cells. […] After 24 hours of incubation, cells were treated with extracts from Cymopolia barbata, a negative control (DMSO, 1%, v/v), and a positive control ([…] sulforaphane, SF, and tert-butylhydroquinone, tBHQ, respectively.) 24 hours post-treatment, luciferase activity was detected using BriteLite detection reagent (PerkinElmer). […]

[2] = type: physicochemical
Method: Silver oxide (14.2 mg) was added to a solution of cymopol 1 (6.6 mg) in dichloromethane (2.5 mL). The reaction mixture was stirred at room temperature for 15 min before being evaporated in vacuum. The crude product was purified by preparative TLC plate (ethyl acetate/hexane 1:4, v/v, Rf 0.8) to give 4.92 mg product 5 (75% yield).

[3] = system: NQO1; test: qPCR of NQO1 transcript in IMR-32 cells; type: cell-based, human; conditions: 12 h
Method: The cells were seeded in 6-well format (see immunoblot) and treated with a solvent control (DMSO, 1%, v/v), isolated compounds, or extracts for 12 h. The RNeasy Mini Kit (Qiagen) was used to collect total RNA from cells, while for mouse tissue, TRIzol reagent (Invitrogen) was used. In each case, total RNAs (2 μg) were reverse-transcribed into cDNAs, which were used as templates for TaqMan gene expression assay (Applied Biosystems) and detected using the 7300 Real-Time PCR System (Applied Biosystems). Each qPCR sample was tested in triplicate as a 25 μL total reaction volume (12.5 μL of Taqman 2× universal master mix, 1.25 μL of a 20× TaqMan gene expression assay probe, 1 μL of the above cDNA, and 10.25 μL of RNase-free sterile water). The qPCR method was designed as following: 50° C. for 2 min, 95° C. for 10 min, and 40 cycles of 95° C. for 15 s and 60° C. for 1 min. Endogenous controls used included GAPDH for IMR-32 cells and β-actin to normalize for RAW264.7 cells and mouse tissues.

[4] = biological target: T1, full-length human recombinant KEAP1 (Homo sapiens, UniProt Q14145); test: LC-MS/MS mapping of cysteine adducts on recombinant KEAP1; type: binding; conditions: excess CymQ
T1 construct: cysteine residues of full-length human recombinant KEAP1 in vitro
T1 sequence (Q14145 whole entry): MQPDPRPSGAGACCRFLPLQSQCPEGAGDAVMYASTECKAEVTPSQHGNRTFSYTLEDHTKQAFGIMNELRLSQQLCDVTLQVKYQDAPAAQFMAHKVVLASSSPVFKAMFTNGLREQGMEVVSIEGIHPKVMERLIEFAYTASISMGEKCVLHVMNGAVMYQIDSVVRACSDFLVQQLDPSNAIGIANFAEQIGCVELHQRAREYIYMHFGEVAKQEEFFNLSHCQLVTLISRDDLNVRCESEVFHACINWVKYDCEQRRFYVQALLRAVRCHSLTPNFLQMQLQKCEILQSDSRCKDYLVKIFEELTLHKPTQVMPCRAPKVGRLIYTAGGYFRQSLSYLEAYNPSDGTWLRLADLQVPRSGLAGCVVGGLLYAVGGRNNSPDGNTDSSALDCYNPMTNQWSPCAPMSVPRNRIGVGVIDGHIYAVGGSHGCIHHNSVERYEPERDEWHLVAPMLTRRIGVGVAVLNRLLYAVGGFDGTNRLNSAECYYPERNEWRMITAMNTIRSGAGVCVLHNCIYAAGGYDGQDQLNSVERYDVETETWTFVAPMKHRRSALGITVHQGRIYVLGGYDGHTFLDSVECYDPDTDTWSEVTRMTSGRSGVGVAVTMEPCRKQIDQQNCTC
Excerpt: To obtain a global picture of cysteine modification of Keap1, rather than focusing on known functionally relevant residues, a proteomics approach was utilized, monitoring the effect of activated cymopol (CymQ) on cysteine residues of full-length human recombinant KEAP1 in vitro, similarly as described [Wang R, et al. (2013) In vitro and in vivo characterization of a tunable dual-reactivity probe of the Nrf2-ARE pathway. ACS Chem Biol 8(8):1764-1774; Hur W, et al. (2010) A small-molecule inducer of the antioxidant response element. Chem Biol 17(5):537-547]. Briefly, KEAP1 was treated with excess CymQ and adducts were mapped by LC-MS/MS in three separate experiments (five different conditions) using DTT, chymotrypsin and trypsin as the variables for different sample preparations, in order to capture more potential adducts. The most abundant modification observed was a mass increase of 242, resulting from an addition-elimination reaction of 5 (FIGS. 54 and 55) with loss of bromine, which is unique to CymQ compared with tBQ. Additional representative spectra for different types of tags can be found in SI Appendix, Fig. S4. […] Most ARE activators belong to class 1 of this cysteine code where Cys151 is readily modified, although contradictory results are shown for these compounds based on the experimental conditions used. […]

Molecule | anti-oxidant efficacy [1] | stability in air [2] | Nqo1 transcript induction by quinone versus hydroquinone counterpart [3] | alkylation of highly reactive cysteines including Cys151 [4] | number of KEAP1 cysteines modified [4]
CC12CCC(Br)C(C)(C)C1Cc1cc(O)c(Br)cc1O2 (stereo not drawn) [Compound 3, 2,6-dibromo-1,1,4a-trimethyl-2,3,4,4a,9,9a-hexahydro-1H-xanthen-7-ol] | reduced anti-oxidant efficacy | – | – | – | –
C=C1CCC(Br)C(C)(C)C1Cc1cc(OC)c(Br)cc1O (stereo not drawn) [Compound 4, 5-bromo-2-((3-bromo-2,2-dimethyl-6-methylenecyclohexyl)methyl)-4-methoxyphenol] | reduced anti-oxidant efficacy | – | – | – | –
cymopol quinone [Compound 5] | – | not stable in air | retained the bioactivity | failed to alkylate | 10
